Test results taken from US12465050B2, “Compositions comprising a pyridine carboxylate herbicide and protoporphyrinogen oxidase (protox) inhibitor herbicides” (priority 2018, dated 2025).

Assays:
Type in all cases: in vivo
[1] = system: Rumex obtusifolius (broad-leaf dock); experiment: Greenhouse postemergence herbicidal effect on RUMOB; conditions: Compound A 0, Bifenox 90 g/ha
Source text: (§1) Greenhouse Trial Methodology—Evaluation of Postemergence Herbicidal Effect
(§2) Seeds of the desired test plant species were planted in a 90:10% v/v (volume/volume) mixture of PRO-MIX® BX (Premier Tech Horticulture, Quakertown, Pa., USA) and PROFILE® GREENS GRADE™ (Profile Products LLC, Buffalo Grove, Ill., USA) planting mixture, which typically has a pH of 5.2 to 6.2 and an organic matter content of at least 50 percent, in plastic pots with a surface area of 103.2 square centimeters (cm^2). In some aspects or embodiments, to help ensure good germination and healthy plants, a fungicide treatment and/or other chemical or physical treatment was applied. The plants were grown for 7-36 days (d) in a greenhouse with an approximate 14-hour (h) photoperiod which was maintained at about 23° C. during the day and 22° C. during the night. Nutrients and water were added on a regular basis and supplemental lighting was provided with overhead metal halide 1000-Watt lamps as necessary. The plants were employed for testing when they reached the second or third true leaf stage.
(§3) Emulsifiable concentrates of each of each pyridine carboxylate herbicide (Compound A or Compound B) were prepared at 100 grams acid equivalent per liter (g ae/L). The emulsifiable concentrates also included a safener, cloquintocet mexyl, at 120 grams active ingredient per liter (g ai/L). An aliquot of each emulsifiable concentrate was placed in a 25 mL glass vial and diluted with an aqueous mixture of 1.25% (v/v) ACTIROB® B esterified rapeseed oil (Bayer Crop Science, Research Triangle Park, N.C., USA) or MSO® Concentrate with LECI-TECH® methylated soybean oil (Loveland Products, Loveland, Colo., USA) to obtain concentrated stock solutions at the highest application rate for each herbicide, based upon a 12 milliliter (mL) application volume at a rate of 187 liters per hectare (L/ha). The concentrated stock solutions were further diluted with an aqueous mixture of 1.25% v/v ACTIROB® B or MSO® Concentrate with LECI-TECH® to obtain stock solutions at reduced application rates for each herbicide. Spray solutions of the herbicide combinations (Compound A or Compound B plus PROTOX inhibitor herbicide) were prepared by adding weighed amounts or aliquots of the PROTOX inhibitor herbicides to the stock solutions of Compound A or Compound B to form 12-mL spray solutions in two-way combinations.
(§4) The spray solutions were applied to the plant material with an overhead Mandel track sprayer equipped with 8002E nozzles calibrated to deliver 187 L/ha over an application area of 0.503 square meters (m^2) at a spray height of 18 inches (43 centimeters (cm)) above the average plant canopy. Control plants were sprayed in the same manner with the solvent blank. All pyridine carboxylate herbicide (component a) application rates are given as “g ae/ha” and all PROTOX inhibitor herbicide (component b) application rates are given as “g ai/ha.”
(§5) The treated plants and control plants were placed in a greenhouse as described above and watered by sub-irrigation to prevent wash-off of the test compounds. After 20-22 d, the condition of the test plants as compared with that of the control plants was determined visually and scored on a scale of 0 to 100 percent where 0 corresponds to no injury and 100 corresponds to complete kill.

[2] = system: Viola tricolor (wild pansy); experiment: Greenhouse postemergence herbicidal effect on VIOTR
Source text: as §1, §2, §3, §4, §5

[3] = system: Cirsium arvense (Canadian thistle); experiment: Greenhouse postemergence herbicidal effect on CIRAR
Source text: as §1, §2, §3, §4, §5

[4] = system: Brassica napus (spring rape); experiment: Greenhouse postemergence herbicidal effect on BRSNN; conditions: Compound A 0, Bifenox 90 g/ha
Source text: as §1, §2, §3, §4, §5

[5] = system: Setaria faberi (giant foxtail); experiment: Greenhouse postemergence herbicidal effect on SETFA
Source text: as §1, §2, §3, §4, §5

[6] = system: Kochia scoparia (kochia); experiment: Greenhouse postemergence herbicidal effect on KCHSC
Source text: as §1, §2, §3, §4, §5

[7] = system: Avena fatua (wild oat); experiment: Greenhouse postemergence herbicidal effect on AVEFA; conditions: Compound A 0, Bifenox 90 g/ha
Source text: as §1, §2
(§6) Emulsifiable concentrates of each of each pyridine carboxylate herbicide (Compound A or Compound B) were prepared at 100 grams acid equivalent per liter (g ae/L). The emulsifiable concentrates also included a safener, cloquintocet mexyl, at 120 grams active ingredient per liter (g ai/L). […]
as §5

[8] = system: Echinochloa crus-galli (barnyard grass); experiment: Greenhouse postemergence herbicidal effect on ECHCG; conditions: Compound A 0, Bifenox 90 g/ha
Source text: as §1, §2, §6, §5

[9] = system: Digitaria sanguinalis (large crabgrass); experiment: Greenhouse postemergence herbicidal effect on DIGSA; conditions: Compound A 0, Bifenox 90 g/ha
Source text: as §1, §2, §6, §5

[10] = system: Triticum aestivum (spring wheat); experiment: Greenhouse postemergence phytotoxicity on crop TRZAS; conditions: Compound A 0, Carfentrazone-ethyl 5 g/ha
Source text: as §1, §2, §3, §4, §5

[11] = system: Polygonum convolvulus (wild buckwheat); experiment: Greenhouse postemergence herbicidal effect on POLCO; conditions: Compound A 0, Carfentrazone-ethyl 5 g/ha
Source text: as §1, §2, §3, §4, §5

[12] = system: Salsola kali (Russian thistle); experiment: Greenhouse postemergence herbicidal effect on SASKR; conditions: Compound A 0, Carfentrazone-ethyl 5 g/ha
Source text: as §1, §2, §3, §4, §5

[13] = system: Hordeum vulgare (spring barley); experiment: Greenhouse postemergence phytotoxicity on crop HORVS; conditions: Compound A 0, Carfentrazone-ethyl 5 g/ha
Source text: as §1, §2, §3, §4, §5

[14] = Compound B 7.5, Saflufenacil 0 g/ha
[15] = Compound B 10, Saflufenacil 0 g/ha

COC(=O)c1cc(Oc2ccc(Cl)cc2Cl)ccc1[N+](=O)[O-] [Bifenox, methyl 5-(2,4-dichlorophenoxy)-2-nitrobenzoate, reference compound]
% visual injury, Obs [1]: 0%
% visual injury, Obs ([2]; Compound A 0, Bifenox 90 g/ha): 0%
% visual injury, Obs ([3]; Compound A 0, Bifenox 90 g/ha): 18%
% visual injury, Obs [4]: 23%
% visual injury, Obs ([5]; Compound A 0, Bifenox 90 g/ha): 18%
% visual injury, Obs ([6]; Compound A 0, Bifenox 90 g/ha): 73%
% visual injury, Obs [7]: 5%
% visual injury, Obs [8]: 15%
% visual injury, Obs [9]: 25%

CCOC(=O)C(Cl)Cc1cc(-n2nc(C)n(C(F)F)c2=O)c(F)cc1Cl (stereo not drawn) [Carfentrazone-ethyl, ethyl α,2-dichloro-5-[4-(difluoromethyl)-4,5-dihydro-3-methyl-5-oxo-1H-1,2,4-triazol-1-yl]-4-fluorobenzenepropanoate, reference compound]
% visual injury, Obs ([6]; Compound A 0, Carfentrazone-ethyl 5 g/ha): 20%
% visual injury, Obs [10]: 0%
% visual injury, Obs [11]: 5%
% visual injury, Obs [12]: 68%
% visual injury, Obs [13]: 8%

C#CCOC(=O)c1nc(-c2ccc3cc[nH]c3c2F)c(F)c(N)c1Cl [Compound B, propargyl 4-amino-3-chloro-5-fluoro-6-(7-fluoro-1H-indol-6-yl)pyridine-2-carboxylate]
% visual injury, Obs [2, 14]: 10%
% visual injury, Obs [2, 15]: 40%
% visual injury, Obs [3, 14]: 45%
% visual injury, Obs [3, 15]: 45%
% visual injury, Obs [5, 14]: 70%
% visual injury, Obs [5, 15]: 55%
